For two molecules, MIC results are on record in patent US4647572A, “Iodoallyl and iodopropargyl substituted tetrazoles and anti-microbial compositions thereof” (Meiji Seika Kaisha, Ltd., priority 1982, dated 1987).

Holding throughout (assay type): cell-based
Test [1] relates to Staphylococcus aureus 209P JC-1. Description: Minimal Inhibitory Concentration Method. To be noted: Staphylococcus aureus, 209P, read-out: Minimal Inhibitory Conc.
The test system of test [2] is Bacillus anthracis No. 119. Kind of test: microbe, parasite or virus in culture. To be noted: NO.119, read-out: Minimal Inhibitory Conc.
Test [3] concerns Escherichia coli NIHJ JC-2. Kind of test: Minimal Inhibitory Concentration Method. Particulars: NIHJJC2, read-out: Minimal Inhibitory Conc.
The next test concerns Salmonella typhi 0-901-W. Kind of test: Minimal Inhibitory Concentration Method. Particulars: Salmonella enterica, read-out: Minimal Inhibitory Conc.
Test [4] concerns Shigella sonnei EW 33 type I. Description: Minimal Inhibitory Concentration Method. To be noted: EW33TYPEI, read-out: Minimal Inhibitory Conc. The source says: (Minimal Inhibitory Concentration Method)
Minimal Inhibitory Conc. (mcg/ml)

The subject of test [5] is Klebsiella pneumoniae PCI 602. Kind of test: Minimal Inhibitory Concentration Method. To be noted: PCI602, read-out: Minimal Inhibitory Conc.
Another test has as its system Proteus vulgaris OX-19. Kind of test: Minimal Inhibitory Concentration Method. Particulars: Proteus vulgaris, OX19, read-out: Minimal Inhibitory Conc.
The subject of test [6] is Serratia marcescens MB-3848. Kind of test: Minimal Inhibitory Concentration Method. Particulars: MB3848; Serratia marcescens MB-3848; read-out: Minimal Inhibitory Conc.
For test [7], the system named is Pseudomonas cepacia M-0527. Description: Minimal Inhibitory Concentration Method. To be noted: Burkholderia cepacia, M0527, read-out: Minimal Inhibitory Conc.
Test [8] deals with Pseudomonas maltiophilia M-0627. Description: Minimal Inhibitory Concentration Method. To be noted: M0627, read-out: Minimal Inhibitory Conc.
For a further test, the system named is Candida albicans GA-24. Description: Antifungal Activity MIC (in medicinal field). Particulars: GA24, read-out: Minimal Inhibitory Concentration (MIC).
Test [9] relates to Cryptococcus neoformans Cr-1. Kind of test: Antifungal Activity MIC (in medicinal field). Particulars: CR1, read-out: Minimal Inhibitory Concentration (MIC).
The subject of test [10] is Trichophyton metagrophytes 530324. Description: Antifungal Activity MIC (in medicinal field). To be noted: read-out: Minimal Inhibitory Concentration (MIC).
Test [11] relates to Trichophyton interdigitale. Kind of test: Antifungal Activity MIC (in medicinal field). Particulars: read-out: Minimal Inhibitory Concentration (MIC).
Test [12] relates to Aspergillus fumigatus Saito. Kind of test: Antifungal Activity MIC (in medicinal field). To be noted: read-out: Minimal Inhibitory Concentration (MIC).

Values after ≈ are worked out from the molar mass of the structure shown.

As for `CCCc1nnn(CC#CI)n1` [Compound No. 5, 2-(1'-iodopropyn-3'-yl)-5-n-propyltetrazole], the MIC in test [1] came to 12.5 µg/mL (≈ 45.3 µM); in test [2] it was 12.5 µg/mL (≈ 45.3 µM); in [3], 50 µg/mL (≈ 181 µM); in the test with Salmonella typhi 0-901-W, 25 µg/mL (≈ 90.6 µM); in [4], 6.25 µg/mL (≈ 22.6 µM); in test [5], 100 µg/mL (≈ 362 µM). The MIC in the test on Proteus vulgaris OX-19 came out at 12.5 µg/mL (≈ 45.3 µM); in [6] it was 25 µg/mL (≈ 90.6 µM); in [7], 100 µg/mL (≈ 362 µM); in [8] it was 25 µg/mL (≈ 90.6 µM); in the test with Candida albicans GA-24 it was 0.78 µg/mL (≈ 2.83 µM); in test [9] it was 0.78 µg/mL (≈ 2.83 µM). Besides, the figures for the MIC in test [10], in [11] and in [12] were 0.05 µg/mL (≈ 0.181 µM), not above 0.05 µg/mL and not above 0.05 µg/mL, respectively.
For `CC(C)c1nnn(CC#CI)n1` [Compound No. 7, 2-(1'-iodopropyn-3'-yl)-5-isopropyltetrazole], the MIC in test [1] worked out at 12.5 µg/mL (≈ 45.3 µM); in test [2] it was 12.5 µg/mL (≈ 45.3 µM); in test [3], 25 µg/mL (≈ 90.6 µM); in the test on Salmonella typhi 0-901-W, 25 µg/mL (≈ 90.6 µM); in test [4] it was 6.25 µg/mL (≈ 22.6 µM); in test [5], 100 µg/mL (≈ 362 µM). Moreover, the MIC in the test on Proteus vulgaris OX-19 is 12.5 µg/mL (≈ 45.3 µM); in [6], 25 µg/mL (≈ 90.6 µM); in [7], more than 100 µg/mL; in [8] it was 50 µg/mL (≈ 181 µM); with Candida albicans GA-24, not above 0.05 µg/mL; in test [9] it was 0.78 µg/mL (≈ 2.83 µM). Also, the MIC in test [10], in test [11] and in test [12] was not above 0.05 µg/mL throughout.
